# Experimental data published in patent US10987346B2, “Iloperidone for the treatment of schizophrenia” (Vanda Pharmaceuticals, Inc., priority 2015, dated 2021).
# Columns and labels:
# [1] = tested on: patients with schizophrenia; experiment: Randomized withdrawal relapse-prevention study (NCT01291511): efficacy assessments; format: in vivo, human; conditions: for Avg Time to Relapse or Impending Relapse: full analysis population; for Hazard Ratio (95% CI): favoring iloperidone over placebo
# Description: Study subjects were adults with schizophrenia who were first treated with open-label iloperidone 12 mg/day given as 6 mg BID and then stabilized for a further 14-24 weeks with a flexible-dose iloperidone regimen as per investigator judgment ranging between 8-24 mg/day daily dose (given BID). Subjects who remained clinically stable for at least 12 weeks entered the relapse prevention phase and were randomized 1:1 to either continue on the same flexible dose regimen of iloperidone or to withdraw from iloperidone to matched placebo in a double-blinded fashion. Subjects were followed for up to 26 weeks and were withdrawn upon showing signs of relapse or impending relapse. A pre-defined unblinded interim analysis (IA) was conducted utilizing a group sequential testing procedure with an O'Brien-Fleming stopping boundary after 68 relapse or impending relapse events were observed. The primary outcome was time-to-relapse or impending relapse with event criteria defined in the protocol prior to first subject enrollment.
# A randomized, double-blind, placebo-controlled, parallel-group study (ClinicalTrials.gov identifier NCT01291511) was performed at 27 centers in the United States, 15 in India and 24 in Ukraine.
# The study consisted of five phases, the first four of which are shown in FIG. 1: screening phase, open-label titration phase, open-label stabilization phase, double-blind randomized withdrawal phase, and open-label extension phase (not shown).
# In the Open-Label Titration Phase, patients received iloperidone 1, 2, 4, 6, 6, 6, 6 mg twice daily on Days 1 through 7, respectively. All previous antipsychotic treatments were discontinued prior to, or within 4 days, after the first day of iloperidone treatment. If the Investigator felt that it was necessary to titrate down the previous antipsychotic medication, the dose reduction was to be done within the first 4 days initiating iloperidone treatment (i.e., previous medication fully discontinued by Day 4).
# In the Open-Label Stabilization Phase, patients received flexible doses of iloperidone 4 to 12 mg twice daily (8 to 24 mg/day). Patients needed to be clinically stable for a minimum of 12 weeks prior to randomization.
# In the Double-Blind Randomized Withdrawal Phase, patients were randomized to receive iloperidone or placebo. Patients randomized to iloperidone initially took the dose level being received during the last 4 weeks of the Stabilization Phase and then treated with flexible doses of iloperidone 4 to 12 mg twice daily (8 to 24 mg/day).
# Patients needed to be clinically stable throughout the last 12 weeks of the Stabilization Phase to be eligible for randomization. “Clinically stable” adult outpatients were defined as: meeting DSM-IV criteria for schizophrenia, and remaining stable following 12 weeks of open-label treatment with flexible doses of iloperidone, being on an established dose of iloperidone that remained unchanged due to efficacy during the 4 weeks prior to randomization; PANSS total score ≤70 and CGI-S score ≤4; Score of ≤4 on each of the following individual PANSS items: P1 (delusion), P2 (conceptual disorganization), P3 (hallucinatory behavior), P6 (suspiciousness/persecution), P7 (hostility), or G8 (uncooperativeness); and no hospitalization or increase in level of care to treat exacerbations.
# The primary efficacy endpoint was time to relapse or impending relapse. Relapse or impending relapse during the double-blind relapse prevention phase was defined as any of the following: hospitalization (voluntary or involuntary) due to worsening of schizophrenia; an increase (worsening) of the PANSS total score of ≥30% from randomization, confirmed at a second visit conducted with 1 to 7 days later; patient had clinically significant suicidal, homicidal, or aggressive behavior; CGI-I score of ≥6 (much worse) or 7 (very much worse) after randomization; or an increase in iloperidone dose or in need of additional antipsychotic treatment. […]
# [2] = tested on: patients with schizophrenia; experiment: Randomized withdrawal relapse-prevention study (NCT01291511): safety assessments; format: in vivo, human; conditions: for Patients with at least 1 TEAE: Full Analysis Population; for Primary Reason for Discontinuation: Abnormal Laboratory Value(s) / Primary Reason for Discontinuation: Abnormal Test Procedure Result(s) / Primary Reason for Discontinuation: Adverse Event(s) / Primary Reason for Discontinuation: Death: interim analysis population, % of discontinued
# Text: Safety assessments included collection of adverse events (AEs), clinical laboratory evaluations, 12-lead electrocardiograms (ECGs), body weight, vital signs, Columbia Suicide Severity Rating Scale (C-SSRS), and movement disorder rating scales (Barnes Akathisia Scale [BAS], Abnormal Involuntary Movement Scale [AIMS], and Simpson Angus Scale [SAS]).
# The safety population was defined for each study phase (Titration and Stabilization or Double-Blind Relapse Prevention). For each phase, the safety population included all patients who received at least 1 dose of study medication during the corresponding phase. Descriptive statistics by study phase for each of the safety assessments were calculated.
# [3] = Double-Blind Relapse Prevention Phase, N = 151
# [4] = Relapse Prevention Phase, end of the study
# [5] = Titration and Stabilization Phase
# [6] = Titration/Stabilization Phase, N = 629
# [7] = end of Titration and Stabilization Phase
structure (smiles),measurement,setting,value
COc1cc(C(C)=O)ccc1OCCCN1CCC(c2noc3cc(F)ccc23)CC1 [iloperidone],Avg Time to Relapse or Impending Relapse,"[1]; 8 mg/d, n=18",<30 days
same,Avg Time to Relapse or Impending Relapse,"[1]; 12 mg/d, n=58",>120 days
same,Avg Time to Relapse or Impending Relapse,"[1]; 20 mg/d, n=14",>120 days
same,Average Time to Relapse,[1]; Final (FAS),140 days
same,Relapse Rate,[1]; Final (FAS) (N = 151),17.9%
same,Hazard Ratio (95% CI),[1]; Final (FAS),5.2
same,Hazard Ratio (95% CI),"[1]; Final (FAS), listed as Iloperidone","5.2 (3.2, 8.4)"
same,Relapse Rate,[1]; Interim Analysis Population (N = 97),20.4%
same,Hazard Ratio (95% CI),"[1]; Interim Analysis Population, Cox regression",4.7
same,Hazard Ratio (95% CI),"[1]; Interim Analysis Population, Cox regression, listed as Iloperidone","4.7 (2.7, 8.3)"
same,Average Time to Relapse,"[1]; Interim Analysis Population, KM estimates",139 days
same,CGI-I outcome in the majority of patients,[1]; Relapse Prevention Phase,showed improvement
same,adjusted mean CGI-I score,"[1]; Relapse Prevention Phase, LOCF",3.3
same,adjusted mean change from randomization baseline at endpoint in PANSS total score,"[1]; Relapse Prevention Phase, LOCF",2.3 points
same,mean improvement on the PANSS total score,"[1]; during Titration and Stabilization Phase, patients randomized in the IA (N=195)",−19.5±10.1 points
same,time to relapse compared with placebo (FIG. 2),"[1]; interim analysis population, Kaplan-Meier",statistically significant longer time to relapse
same,estimated relapse rate at the end of the double-blind relapse prevention phase (KM est.),"[1]; interim analysis, flexible dose 8-24 mg/day",20.4%
same,TEAE incidence: Dizziness,[2]; [3],4 (2.6) n (%)
same,TEAE incidence: Dry Mouth,[2]; [3],0 n (%)
same,TEAE incidence: Headache,[2]; [3],3 (2.0) n (%)
same,TEAE incidence: Insomnia,[2]; [3],3 (2.0) n (%)
same,TEAE incidence: Nausea,[2]; [3],2 (1.3) n (%)
same,TEAE incidence: Schizophrenia,[2]; [3],3 (2.0) n (%)
same,TEAE incidence: Somnolence,[2]; [3],2 (1.3) n (%)
same,TEAE incidence: Weight increased,[2]; [3],2 (1.3) n (%)
same,Patients with at least 1 TEAE,[2]; [3],60 (39.7) n (%)
same,changes in AIMS scores,[2]; Relapse Prevention Phase,No clinically meaningful changes
same,mean change from baseline in QTcF,[2]; Relapse Prevention Phase,4.9 ms
same,most common SAE: schizophrenia,[2]; Relapse Prevention Phase,1.3%
same,patients discontinued due to TEAEs,[2]; Relapse Prevention Phase,6%
same,patients reporting akathisia as TEAE,[2]; Relapse Prevention Phase,1%
same,patients reporting extrapyramidal disorder as TEAE,[2]; Relapse Prevention Phase,1%
same,patients who experienced a SAE,[2]; Relapse Prevention Phase,4%
same,patients who experienced a TEAE,[2]; Relapse Prevention Phase,40%
same,patients in whom akathisia was absent (BAS),"[2]; Relapse Prevention Phase, at completion",95%
same,mean change from baseline in weight,[2]; [4],0.02 kg
same,patients with ≥7% increase in weight from baseline,[2]; [4],38%
same,waist circumference versus placebo,[2]; [4],no notable differences
same,Primary Reason for Discontinuation: Abnormal Laboratory Value(s),[2]; Relapse Prevention Phase,3 (13) n (%)
same,Primary Reason for Discontinuation: Abnormal Test Procedure Result(s),[2]; Relapse Prevention Phase,1 (4) n (%)
same,Primary Reason for Discontinuation: Adverse Event(s),[2]; Relapse Prevention Phase,3 (13) n (%)
same,Primary Reason for Discontinuation: Death,[2]; Relapse Prevention Phase,1 (4) n (%)
same,changes in Abnormal Involuntary Movement Scale (AIMS) scores,[2]; [5],No clinically meaningful changes
same,discontinuation due to TEAE: QT prolongation,[2]; [5],1.1%
same,discontinuation due to TEAE: dizziness,[2]; [5],1.4%
same,discontinuation due to TEAE: schizophrenia,[2]; [5],1.9%
same,mean change from baseline in QTcF,[2]; [5],6.4 ms
same,most common SAE: schizophrenia,[2]; [5],1.4%
same,patients discontinued due to TEAEs,[2]; [5],15%
same,patients reporting akathisia as TEAE,[2]; [5],4%
same,patients reporting extrapyramidal disorder as TEAE,[2]; [5],3%
same,patients who experienced a SAE,[2]; [5],4%
same,patients who experienced a Treatment-Emergent Adverse Event (TEAE),[2]; [5],69%
same,patients who died while receiving iloperidone,"[2]; Titration and Stabilization Phase, one patient, alcohol poisoning",0.2%
same,TEAE incidence: Dizziness,[2]; [6],73 (11.6) n (%)
same,TEAE incidence: Dry Mouth,[2]; [6],43 (6.8) n (%)
same,TEAE incidence: Headache,[2]; [6],40 (6.4) n (%)
same,TEAE incidence: Insomnia,[2]; [6],35 (5.6) n (%)
same,TEAE incidence: Nausea,[2]; [6],32 (5.1) n (%)
same,TEAE incidence: Schizophrenia,[2]; [6],15 (2.4) n (%)
same,TEAE incidence: Somnolence,[2]; [6],52 (8.3) n (%)
same,TEAE incidence: Weight increased,[2]; [6],34 (5.4) n (%)
same,Patients with at least 1 TEAE,[2]; [6],433 (68.8) n (%)
same,Primary Reason for Discontinuation: Abnormal Laboratory Value(s),[2]; Titration/Stabilization Phase,19 (8) n (%)
same,Primary Reason for Discontinuation: Abnormal Test Procedure Result(s),[2]; Titration/Stabilization Phase,5 (2) n (%)
same,Primary Reason for Discontinuation: Adverse Event(s),[2]; Titration/Stabilization Phase,80 (32) n (%)
same,Primary Reason for Discontinuation: Death,[2]; Titration/Stabilization Phase,1 (<1) n (%)
same,mean change from baseline in weight,[2]; [7],0.5 kg
same,patients in whom akathisia was absent (Barnes Akathisia Scale),[2]; [7],97%
same,patients with ≥7% increase in weight from baseline,[2]; [7],17%
same,QTcF prolongation in relation to dose/exposure,"[2]; longer-term trial, higher exposures associated with more QT prolongation",dose-dependent
same,adverse events during maintenance period,[2]; patients administered 16 mg/day or less,reduction in adverse events
same,most common adverse events suspected to be related to iloperidone,[2]; stabilization phase,"dizziness, somnolence and dry mouth"
same,patients with elevations in LDL,[2]; versus none on placebo,2.6%
same,patients with elevations in blood urea nitrogen (BUN),[2]; versus none on placebo,4.5%
